We go through 20 compounds from ChEMBL document CHEMBL3045726, “Fungicidal Activity of Pyrazolylpyrimidines” (1990).

Each structure is given as a SMILES string. Converted amounts (≈) assume the structure as drawn.

Common to all, as to assay type: functional
Assay [1] concerns Pyricularia oryzae. Nature of the assay: Fungicidal activity against Magnaporthe oryzae in rice seedlings assessed as control of rice blast at 250 ppm by curative foliar treatment.
The test system of assay [2] is Pyricularia oryzae. Nature of the assay: Fungicidal activity against Magnaporthe oryzae by agar dilution method.
The next assay relates to Nakataea oryzae. Nature of the assay: Fungicidal activity against Magnaporthe salvinii by agar dilution method. For orientation: In agar dilution, organisms are placed on agar that contains the substance at set levels.
The subject of assay [3] is Pyricularia oryzae. Nature of the assay: Fungicidal activity against Magnaporthe oryzae in rice seedlings assessed as control of rice blast at 500 ppm by preventive foliar treatment.
Assay [4] has as its system Podosphaera fuliginea. Nature of the assay: Fungicidal activity against Podosphaera fuliginea in cucumber assessed as control of cucumber powdery mildew at 62.5 ppm measured after 10 days of inoculation.
Assay [5] relates to Pyricularia oryzae. Nature of the assay: Fungicidal activity against Magnaporthe oryzae in rice seedlings assessed as control of rice blast at 500 ppm by curative foliar treatment.
The test system of assay [6] is Podosphaera fuliginea. Nature of the assay: Fungicidal activity against Podosphaera fuliginea in cucumber assessed as control of cucumber powdery mildew at 125 ppm measured after 7 days of inoculation.
For assay [7], the system named is Podosphaera fuliginea. Nature of the assay: Fungicidal activity against Podosphaera fuliginea in cucumber assessed as control of cucumber powdery mildew at 62.5 ppm measured after 7 days of inoculation.
For assay [8], the system named is Podosphaera fuliginea. Nature of the assay: Fungicidal activity against Podosphaera fuliginea in cucumber assessed as control of cucumber powdery mildew at 125 ppm measured after 10 days of inoculation.

By MIC is commonly meant the lowest concentration that inhibits growth of the organism. The low end stands for greater potency, the high end for weaker potency.

As to `Cc1cc(O)nc(-n2nc(C)cc2C)n1`, the Activity in the assay with Pyricularia oryzae [1] amounted to 69%. The same compound returned an MIC against Pyricularia oryzae [2] of 12.5 µg/mL (≈ 61.2 µM).

With `Cc1cc(C)n(-c2nc(C)c(C)c(O)n2)n1`, the Activity in the assay with Pyricularia oryzae [1] was found to be 0%. For the same compound, the MIC is 12.5 µg/mL (≈ 57.3 µM) with Pyricularia oryzae [2] and 100 µg/mL (≈ 458 µM) in the assay on Nakataea oryzae.

Consider `CCCCc1c(C)nc(-n2nc(C)cc2C)nc1O`, for which the Activity in the assay with Pyricularia oryzae [3] is on record as 48%; in the assay on Podosphaera fuliginea [4], 100%; in the assay with Pyricularia oryzae [5], 99%; with Podosphaera fuliginea [6] it was 100%; with Podosphaera fuliginea [7] it was 100%; in the assay on Podosphaera fuliginea [8] it was 100%. The MIC was found to be 6.25 µg/mL (≈ 24 µM) against Pyricularia oryzae [2] and 0.1 µg/mL (≈ 0.384 µM) in the assay on Nakataea oryzae.

On to `Cc1cc(C)n(-c2nc(C)c(CC(C)C)c(O)n2)n1`, for which the Activity in the assay on Pyricularia oryzae [3] turned out to be 93%; in the assay with Podosphaera fuliginea [4] it was 99.4%; with Pyricularia oryzae [5], 98%; with Podosphaera fuliginea [6], 100%; in the assay with Podosphaera fuliginea [7] it was 100%; in the assay on Podosphaera fuliginea [8], 100%. Also, the minimum inhibitory concentration (MIC) is 6.25 µg/mL (≈ 24 µM) with Pyricularia oryzae [2] and 0.78 µg/mL (≈ 3 µM) in the assay with Nakataea oryzae.

Regarding `CCCCCc1c(C)nc(-n2nc(C)cc2C)nc1O`, the Activity in the assay on Pyricularia oryzae [3] amounted to 81%; in the assay on Podosphaera fuliginea [4], 100%; in the assay on Pyricularia oryzae [5], 94%; in the assay on Podosphaera fuliginea [6], 100%; in the assay with Podosphaera fuliginea [7], 100%; with Podosphaera fuliginea [8], 100%. Further, the MIC in the assay with Pyricularia oryzae [2] was 6.25 µg/mL (≈ 22.8 µM); in the assay on Nakataea oryzae, 0.2 µg/mL (≈ 0.729 µM).

Take `CCCCCCc1c(C)nc(-n2nc(C)cc2C)nc1O`: the Activity came to 81% in the assay on Pyricularia oryzae [3]; 98.4% in the assay with Podosphaera fuliginea [4]; 89% in the assay with Pyricularia oryzae [5]; 100% with Podosphaera fuliginea [6]; 99.4% with Podosphaera fuliginea [7]; 100% in the assay with Podosphaera fuliginea [8]. For the same compound, the minimal inhibitory concentration (MIC) against Pyricularia oryzae [2] and against Nakataea oryzae was 6.25 µg/mL (≈ 21.7 µM) each time.

For `Cc1cc(C)n(-c2nc(O)c3c(n2)CCC3)n1`, the Activity was found to be 13% in the assay on Pyricularia oryzae [3] and 15% in the assay with Pyricularia oryzae [1]. The MIC against Pyricularia oryzae [2] and in the assay with Nakataea oryzae was 6.25 µg/mL (≈ 27.1 µM) throughout.

Take `Cc1cc(C)n(-c2nc(O)c3c(n2)CCCC3)n1`: the Activity with Pyricularia oryzae [3] and in the assay with Pyricularia oryzae [1] was 0% throughout. The compound also had an MIC against Pyricularia oryzae [2] of 3.12 µg/mL (≈ 12.8 µM).

For `C=CCc1c(C)nn(-c2nc(C)cc(C)n2)c1C`, the Activity was determined as 85% in the assay with Pyricularia oryzae [3] and 99% in the assay on Pyricularia oryzae [5]. Moreover, the values for the MIC against Pyricularia oryzae [2] and in the assay with Nakataea oryzae were 100 µg/mL (≈ 413 µM) and 25 µg/mL (≈ 103 µM), respectively.

As to `Cc1cc(C)n(-c2nc(C)c(C)c(C)n2)n1`, the values for the Activity in the assay on Pyricularia oryzae [3] and in the assay on Pyricularia oryzae [5] were 65% and 78%, respectively. Further, the MIC against Pyricularia oryzae [2] worked out at 50 µg/mL (≈ 231 µM); against Nakataea oryzae, 100 µg/mL (≈ 462 µM).

For `Cc1cc(C)nc(-n2ncc3ccccc32)n1`, the Activity in the assay with Pyricularia oryzae [3] was 31%; with Pyricularia oryzae [5], 96%. Further, the MIC amounted to 50 µg/mL (≈ 223 µM) in the assay on Pyricularia oryzae [2] and 25 µg/mL (≈ 111 µM) against Nakataea oryzae.

Consider `Cc1cc(C)nc(-n2nc3c(c2C)CCCC3)n1`, for which the results for the Activity with Pyricularia oryzae [3] and in the assay on Pyricularia oryzae [5] were 84% and 99%, respectively. Also, the MIC with Pyricularia oryzae [2] and with Nakataea oryzae was 12.5 µg/mL (≈ 51.6 µM) in each case.

Take `Cc1nc(-n2nc(C)c(C)c2C)nc(C)c1C`: the figures for the Activity in the assay with Pyricularia oryzae [3] and with Pyricularia oryzae [5] were 81% and 99%, respectively. Also, the MIC against Pyricularia oryzae [2] and with Nakataea oryzae was 50 µg/mL (≈ 217 µM) throughout.

On to `Cc1cc(C)nc(-n2nc(C)c(C)c2C)n1`, for which the Activity in the assay with Pyricularia oryzae [3] was 81%; in the assay with Pyricularia oryzae [5], 99%. The MIC in the assay on Pyricularia oryzae [2] came out at 100 µg/mL (≈ 462 µM); against Nakataea oryzae, 50 µg/mL (≈ 231 µM).

Turning to `Cc1ccnc(-n2nc(C)c(C)c2C)n1`, the Activity in the assay with Pyricularia oryzae [3] amounted to 63%; in the assay with Pyricularia oryzae [5], 100%. For the same compound, the MIC against Pyricularia oryzae [2] and against Nakataea oryzae was 50 µg/mL (≈ 247 µM) throughout.

Take `CCc1c(C)nn(-c2nc(C)cc(C)n2)c1C`: the Activity in the assay on Pyricularia oryzae [3] and in the assay on Pyricularia oryzae [5] was 100% each time. Further, the MIC with Pyricularia oryzae [2] and in the assay with Nakataea oryzae was 50 µg/mL (≈ 217 µM) each time.

Regarding `CCCc1c(C)nn(-c2nc(C)cc(C)n2)c1C`, the Activity in the assay on Pyricularia oryzae [3] is given as 90%; in the assay with Pyricularia oryzae [5] it was 98%. The minimal inhibitory concentration (MIC) against Pyricularia oryzae [2] stood at 25 µg/mL (≈ 102 µM); against Nakataea oryzae, 12.5 µg/mL (≈ 51.2 µM).

In the case of `Cc1cc(C)nc(-n2nc(C)c(CC(C)C)c2C)n1`, the Activity came to 90% in the assay on Pyricularia oryzae [3] and 100% in the assay with Pyricularia oryzae [5]. Further, the MIC in the assay on Pyricularia oryzae [2] and against Nakataea oryzae was 6.25 µg/mL (≈ 24.2 µM) throughout.

`CCCCc1c(C)nc(N(C)C)nc1O` [DIMETHIRIMOL]: the Activity in the assay with Podosphaera fuliginea [4], with Podosphaera fuliginea [6], in the assay with Podosphaera fuliginea [7] and with Podosphaera fuliginea [8] was 100% each time.

On to `CCCCc1c(C)nc(NCC)[nH]c1=O` [ETHIRIMOL], for which the Activity with Podosphaera fuliginea [4], in the assay on Podosphaera fuliginea [6], with Podosphaera fuliginea [7] and in the assay on Podosphaera fuliginea [8] was 100% each time.
